Target: T1, CYP11A1 (Homo sapiens, UniProt P05108)
T1 construct: recombinant WT human CYP11A1, pET-28a(+), C-terminal His6, coexpressed with GroEL/ES in E. coli, purified; MST
T1 sequence (P05108 40-521): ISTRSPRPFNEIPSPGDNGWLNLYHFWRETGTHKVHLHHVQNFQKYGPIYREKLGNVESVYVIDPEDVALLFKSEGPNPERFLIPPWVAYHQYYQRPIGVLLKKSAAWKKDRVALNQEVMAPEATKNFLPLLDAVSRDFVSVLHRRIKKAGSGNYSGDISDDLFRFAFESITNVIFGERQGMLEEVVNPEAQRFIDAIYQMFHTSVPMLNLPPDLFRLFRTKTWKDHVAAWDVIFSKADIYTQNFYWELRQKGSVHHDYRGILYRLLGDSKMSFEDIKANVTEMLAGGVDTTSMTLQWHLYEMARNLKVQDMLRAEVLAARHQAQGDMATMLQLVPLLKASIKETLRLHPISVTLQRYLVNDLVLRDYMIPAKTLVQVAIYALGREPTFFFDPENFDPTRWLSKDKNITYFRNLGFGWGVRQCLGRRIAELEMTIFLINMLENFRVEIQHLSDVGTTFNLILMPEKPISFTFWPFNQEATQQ
Assay: MST with purified protein; in-gel competition with Tet probe; CO difference spectra; cell activity IC50 […]
Type: binding

**Q.** With `COc1ccc2cc1Oc1ccc(cc1)C[C@H]1c3cc(c(OC)cc3CCN1C)Oc1c(OC)c(OC)cc3c1[C@H](C2)N(C)CC3` [Tet, Tetrandrine] as the molecule, how does the Kd read?
**A.** Its Kd is 12.5 µM.

Source: paper PMC11211567, “Tetrandrine inhibits aldosterone synthesis by covalently targeting CYP11A1 to attenuate hypertension” (Frontiers in Pharmacology, 2024)
